Results published in publication PMC11237012, “Synthesis and preliminary evaluation of novel PET probes for GSK-3 imaging” (Scientific Reports, 2024).

Assay: Ex vivo biodistribution
Assay type: in vivo, wild-type FVB/NJ mice
Method: To further understand the pharmacokinetics of [^18F]2, ex vivo biodistribution was performed with different groups of mice with and without co-administration of 2. Animals were sacrificed at 5 min, 10 min and 120 min post-injection of [^18F]2. Vital organs and tissues were collected and uptake of the [^18F]2 was measured as SUV after counting the radioactivity in each harvested tissue. […] Additionally, observed higher uptake of [^18F]2 in pancreas could potentially be extended to beta cell mass imaging as a separate study. […] Therefore, it would be valuable to evaluate PET [^18F]2 in pathological conditions to finally evaluate its selectivity, binding affinity, and retention in vivo in the presence and absence of self-blocking as a future study.
Uptake of PET probe [^18F]2 (1.40 ± 0.61 MBq) was assessed with and without co-administration of 2 in 10–13-week-old wild-type FVB/NJ mice (The Jackson Laboratory, Bar Harbor, ME) after tail vein injection followed by PET imaging at 5 min, 10 min, 15 min, 20 min, 25 min, 30 min, 40 min, 50 min, 60 min and 120 min post injection. Additionally, ex vivo biodistribution was performed at 5 min, 10 min and 120 min post tail vein injection. To prepare [^18F]2 formulation for injection, 0.76 ± 0.48 µg (2.01 ± 1.27 nmol) of [^18F]2 was formulated in 10% ethanol/ 90% isotonic saline. For the blocking experiment, 20.21 ± 1.63 µg (53.75 ± 4.33 nmol) of 2 in DMSO was added to [^18F]2 (Am of 87.27 ± 77.26 (n = 13) GBq/µmole, having 0.46 ± 0.31 µg or 1.23 ± 0.83 nmol of nonradioactive 2 in it) in the final formulation volume of ~ 100 µL. This study had 12 wild type FVB/NJ male mice with body weight 31.8 ± 2.7 g and 10 wild type FVB/NJ female mice with body weight 27.0 ± 3.6 g at the time of imaging. All the animals were anesthetized for tail vein injection and PET imaging using an induction dose of 3% isoflurane and a maintenance dose of 2–3% isoflurane, which was administered via isoflurane vaporizer. All anesthetized animals were kept warm during imaging using a heat supported imaging chamber. For ex vivo biodistribution studies, animals were sacrificed at 5 min, 10 min and 120 min post-injection by cervical dislocation and tissues were harvested for gamma counting. For PET imaging studies, each animal underwent a 60 min dynamic PET scan (Framing Sequence: 1 × 10 s, 4 × 15 s, 8 × 30 s, 5 × 60 s, 4 × 300 s, 3 × 600 s) immediately post injection followed by 10 min static PET scan at 120 min post-injection on small animal micro-PET/X-ray system, Genesys 4 (Sofie BioSystems, Dulles, VA, USA). The PET images were reconstructed using Genesys 4 imaging software installed on the imaging system. The obtained PET images were visualized and analyzed using image analysis software, “Amide's a medical image data examiner-AMIDE”[53]. PET images were normalized to the standardized uptake value (SUV) where; SUV=ConcentrationofdoseintissueμCi/g×Weightoftheanimal(g)/Injecteddose(μCi).

## O=C(Nc1cnccc1-c1ccc([18F])cc1)c1ccnc(NC(=O)C2CC2)c1 [[^18F]2]
Adipose, 5 min post-injection, [^18F]2 + 20 µg of 2
  SUV, Average ± SD: 0.33 ± 0.05
Adipose, 5 min post-injection, [^18F]2 alone
  SUV, Average ± SD: 0.29 ± 0.09
Adipose, 10 min post-injection, [^18F]2 + 20 µg of 2
  SUV, Average ± SD: 0.38 ± 0.05
Adipose, 10 min post-injection, [^18F]2 alone
  SUV, Average ± SD: 0.24 ± 0.07
Adipose, 120 min post-injection, [^18F]2 + 20 µg of 2
  SUV, Average ± SD: 0.25 ± 0.05
Adipose, 120 min post-injection, [^18F]2 alone
  SUV, Average ± SD: 0.14 ± 0.04
Bladder, 5 min post-injection, [^18F]2 + 20 µg of 2
  SUV, Average ± SD: 0.71 ± 0.09
Bladder, 5 min post-injection, [^18F]2 alone
  SUV, Average ± SD: 0.40 ± 0.12
Bladder, 10 min post-injection, [^18F]2 + 20 µg of 2
  SUV, Average ± SD: 0.84 ± 0.13
Bladder, 10 min post-injection, [^18F]2 alone
  SUV, Average ± SD: 0.48 ± 0.08
Bladder, 120 min post-injection, [^18F]2 + 20 µg of 2
  SUV, Average ± SD: 0.73 ± 0.54
Bladder, 120 min post-injection, [^18F]2 alone
  SUV, Average ± SD: 1.58 ± 1.90
Blood, 5 min post-injection, [^18F]2 + 20 µg of 2
  SUV, Average ± SD: 0.93 ± 0.14
Blood, 5 min post-injection, [^18F]2 alone
  SUV, Average ± SD: 0.38 ± 0.18
Blood, 10 min post-injection, [^18F]2 + 20 µg of 2
  SUV, Average ± SD: 0.79 ± 0.12
Blood, 10 min post-injection, [^18F]2 alone
  SUV, Average ± SD: 0.34 ± 0.02
Blood, 120 min post-injection, [^18F]2 + 20 µg of 2
  SUV, Average ± SD: 0.43 ± 0.07
Blood, 120 min post-injection, [^18F]2 alone
  SUV, Average ± SD: 0.15 ± 0.07
Bone, 5 min post-injection, [^18F]2 + 20 µg of 2
  SUV, Average ± SD: 0.48 ± 0.02
Bone, 5 min post-injection, [^18F]2 alone
  SUV, Average ± SD: 0.30 ± 0.14
Bone, 10 min post-injection, [^18F]2 + 20 µg of 2
  SUV, Average ± SD: 0.50 ± 0.03
Bone, 10 min post-injection, [^18F]2 alone
  SUV, Average ± SD: 0.29 ± 0.04
Bone, 120 min post-injection, [^18F]2 + 20 µg of 2
  SUV, Average ± SD: 1.22 ± 0.31
Bone, 120 min post-injection, [^18F]2 alone
  SUV, Average ± SD: 1.08 ± 0.33
CN (caudate nucleus), 5 min post-injection, [^18F]2 + 20 µg of 2
  SUV, Average ± SD: 0.65 ± 0.04
CN (caudate nucleus), 5 min post-injection, [^18F]2 alone
  SUV, Average ± SD: 0.87 ± 0.48
CN (caudate nucleus), 10 min post-injection, [^18F]2 + 20 µg of 2
  SUV, Average ± SD: 0.45 ± 0.05
CN (caudate nucleus), 10 min post-injection, [^18F]2 alone
  SUV, Average ± SD: 0.34 ± 0.07
CN (caudate nucleus), 120 min post-injection, [^18F]2 + 20 µg of 2
  SUV, Average ± SD: 0.19 ± 0.03
CN (caudate nucleus), 120 min post-injection, [^18F]2 alone
  SUV, Average ± SD: 0.06 ± 0.02
Heart, 5 min post-injection, [^18F]2 + 20 µg of 2
  SUV, Average ± SD: 1.38 ± 0.11
Heart, 5 min post-injection, [^18F]2 alone
  SUV, Average ± SD: 0.69 ± 0.36
Heart, 10 min post-injection, [^18F]2 + 20 µg of 2
  SUV, Average ± SD: 1.14 ± 0.16
Heart, 10 min post-injection, [^18F]2 alone
  SUV, Average ± SD: 0.45 ± 0.02
Heart, 120 min post-injection, [^18F]2 + 20 µg of 2
  SUV, Average ± SD: 0.48 ± 0.12
Heart, 120 min post-injection, [^18F]2 alone
  SUV, Average ± SD: 0.16 ± 0.08
Left kidney, 5 min post-injection, [^18F]2 + 20 µg of 2
  SUV, Average ± SD: 2.47 ± 0.30
Left kidney, 5 min post-injection, [^18F]2 alone
  SUV, Average ± SD: 1.37 ± 0.69
Left kidney, 10 min post-injection, [^18F]2 + 20 µg of 2
  SUV, Average ± SD: 2.27 ± 0.32
Left kidney, 10 min post-injection, [^18F]2 alone
  SUV, Average ± SD: 1.01 ± 0.16
Left kidney, 120 min post-injection, [^18F]2 + 20 µg of 2
  SUV, Average ± SD: 2.18 ± 0.51
Left kidney, 120 min post-injection, [^18F]2 alone
  SUV, Average ± SD: 0.54 ± 0.06
Lung, 5 min post-injection, [^18F]2 + 20 µg of 2
  SUV, Average ± SD: 1.17 ± 0.15
Lung, 5 min post-injection, [^18F]2 alone
  SUV, Average ± SD: 0.65 ± 0.35
Lung, 10 min post-injection, [^18F]2 + 20 µg of 2
  SUV, Average ± SD: 1.08 ± 0.15
Lung, 10 min post-injection, [^18F]2 alone
  SUV, Average ± SD: 0.48 ± 0.03
Lung, 120 min post-injection, [^18F]2 + 20 µg of 2
  SUV, Average ± SD: 0.52 ± 0.09
Lung, 120 min post-injection, [^18F]2 alone
  SUV, Average ± SD: 0.18 ± 0.07
Muscle, 5 min post-injection, [^18F]2 + 20 µg of 2
  SUV, Average ± SD: 0.90 ± 0.17
Muscle, 5 min post-injection, [^18F]2 alone
  SUV, Average ± SD: 0.47 ± 0.23
Muscle, 10 min post-injection, [^18F]2 + 20 µg of 2
  SUV, Average ± SD: 0.72 ± 0.09
Muscle, 10 min post-injection, [^18F]2 alone
  SUV, Average ± SD: 0.43 ± 0.03
Muscle, 120 min post-injection, [^18F]2 + 20 µg of 2
  SUV, Average ± SD: 0.32 ± 0.06
Muscle, 120 min post-injection, [^18F]2 alone
  SUV, Average ± SD: 0.11 ± 0.04
Pancreas, 5 min post-injection, [^18F]2 + 20 µg of 2
  SUV, Average ± SD: 1.83 ± 0.16
Pancreas, 5 min post-injection, [^18F]2 alone
  SUV, Average ± SD: 1.27 ± 0.56
Pancreas, 10 min post-injection, [^18F]2 + 20 µg of 2
  SUV, Average ± SD: 1.53 ± 0.15
Pancreas, 10 min post-injection, [^18F]2 alone
  SUV, Average ± SD: 0.85 ± 0.23
Pancreas, 120 min post-injection, [^18F]2 + 20 µg of 2
  SUV, Average ± SD: 0.57 ± 0.15
Pancreas, 120 min post-injection, [^18F]2 alone
  SUV, Average ± SD: 0.22 ± 0.09
Right kidney, 5 min post-injection, [^18F]2 + 20 µg of 2
  SUV, Average ± SD: 2.46 ± 0.18
Right kidney, 5 min post-injection, [^18F]2 alone
  SUV, Average ± SD: 1.34 ± 0.69
Right kidney, 10 min post-injection, [^18F]2 + 20 µg of 2
  SUV, Average ± SD: 2.30 ± 0.35
Right kidney, 10 min post-injection, [^18F]2 alone
  SUV, Average ± SD: 0.97 ± 0.12
Right kidney, 120 min post-injection, [^18F]2 + 20 µg of 2
  SUV, Average ± SD: 2.30 ± 0.81
Right kidney, 120 min post-injection, [^18F]2 alone
  SUV, Average ± SD: 0.48 ± 0.15
Skin, 5 min post-injection, [^18F]2 + 20 µg of 2
  SUV, Average ± SD: 0.66 ± 0.16
Skin, 5 min post-injection, [^18F]2 alone
  SUV, Average ± SD: 0.46 ± 0.17
Skin, 10 min post-injection, [^18F]2 + 20 µg of 2
  SUV, Average ± SD: 0.66 ± 0.10
Skin, 10 min post-injection, [^18F]2 alone
  SUV, Average ± SD: 0.52 ± 0.16
Skin, 120 min post-injection, [^18F]2 + 20 µg of 2
  SUV, Average ± SD: 0.71 ± 0.66
Skin, 120 min post-injection, [^18F]2 alone
  SUV, Average ± SD: 0.10 ± 0.04
Spleen, 5 min post-injection, [^18F]2 + 20 µg of 2
  SUV, Average ± SD: 1.00 ± 0.05
Spleen, 5 min post-injection, [^18F]2 alone
  SUV, Average ± SD: 0.74 ± 0.27
Spleen, 10 min post-injection, [^18F]2 + 20 µg of 2
  SUV, Average ± SD: 1.14 ± 0.50
Spleen, 10 min post-injection, [^18F]2 alone
  SUV, Average ± SD: 0.55 ± 0.20
Spleen, 120 min post-injection, [^18F]2 + 20 µg of 2
  SUV, Average ± SD: 0.44 ± 0.11
Spleen, 120 min post-injection, [^18F]2 alone
  SUV, Average ± SD: 0.15 ± 0.07
Stomach, 5 min post-injection, [^18F]2 + 20 µg of 2
  SUV, Average ± SD: 0.86 ± 0.32
Stomach, 5 min post-injection, [^18F]2 alone
  SUV, Average ± SD: 0.80 ± 0.24
Stomach, 10 min post-injection, [^18F]2 + 20 µg of 2
  SUV, Average ± SD: 0.97 ± 0.63
Stomach, 10 min post-injection, [^18F]2 alone
  SUV, Average ± SD: 0.53 ± 0.09
Stomach, 120 min post-injection, [^18F]2 + 20 µg of 2
  SUV, Average ± SD: 1.28 ± 1.08
Stomach, 120 min post-injection, [^18F]2 alone
  SUV, Average ± SD: 0.68 ± 0.41
Urine, 5 min post-injection, [^18F]2 + 20 µg of 2
  SUV, Average ± SD: 0.20 ± 0.29
Urine, 5 min post-injection, [^18F]2 alone
  SUV, Average ± SD: 0.10 ± 0.10
Urine, 10 min post-injection, [^18F]2 + 20 µg of 2
  SUV, Average ± SD: 0.85 ± 0.79
Urine, 10 min post-injection, [^18F]2 alone
  SUV, Average ± SD: 1.78 ± 1.21
Urine, 120 min post-injection, [^18F]2 + 20 µg of 2
  SUV, Average ± SD: 3.20 ± 2.32
Urine, 120 min post-injection, [^18F]2 alone
  SUV, Average ± SD: 20.55 ± 8.76
liver, 5 min post-injection, [^18F]2 + 20 µg of 2
  SUV, Average ± SD: 8.37 ± 0.36
liver, 5 min post-injection, [^18F]2 alone
  SUV, Average ± SD: 11.85 ± 0.33
liver, 10 min post-injection, [^18F]2 + 20 µg of 2
  SUV, Average ± SD: 7.85 ± 0.41
liver, 10 min post-injection, [^18F]2 alone
  SUV, Average ± SD: 14.43 ± 1.48
liver, 120 min post-injection, [^18F]2 + 20 µg of 2
  SUV, Average ± SD: 4.00 ± 0.22
liver, 120 min post-injection, [^18F]2 alone
  SUV, Average ± SD: 3.08 ± 1.44
